Test results taken from PubChem BioAssay (NCI).
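Growth conditions: 96-well plates. Treatment: test compound, 48 hours, 5 concentrations. Analysis: linear interpolation between bracketing concentrations; unreached endpoints set to highest concentration. Definition used: TGI = concentration required for complete inhibition of growth.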

How the values were obtained:
Assay in all cases: DTP human tumour cell line panel, 48 h
MCF7 breast = test system: MCF7 breast
ACHN renal = test system: ACHN renal
SW-620 colon = test system: SW-620 colon
TK-10 renal = test system: TK-10 renal
UACC-62 melanoma = test system: UACC-62 melanoma
SK-MEL-2 melanoma = test system: SK-MEL-2 melanoma
LOX IMVI melanoma = test system: LOX IMVI melanoma
A549 NSCLC = test system: A549 NSCLC
OVCAR-3 ovarian = test system: OVCAR-3 ovarian
SK-MEL-5 melanoma = test system: SK-MEL-5 melanoma
NCI-H23 lung = test system: NCI-H23 lung
UACC-257 melanoma = test system: UACC-257 melanoma
NCI-H226 lung = test system: NCI-H226 lung
786-0 renal = test system: 786-0 renal
SN12C renal = test system: SN12C renal
EKVX NSCLC = test system: EKVX NSCLC
M14 melanoma = test system: M14 melanoma
OVCAR-4 ovarian = test system: OVCAR-4 ovarian
MDA-N = test system: MDA-N
NCI/ADR-RES ovarian = test system: NCI/ADR-RES ovarian
BT-549 breast = test system: BT-549 breast
HOP-62 NSCLC = test system: HOP-62 NSCLC
CCRF-CEM leukemia = test system: CCRF-CEM leukemia
COLO 205 colon = test system: COLO 205 colon
RXF 393 renal = test system: RXF 393 renal
SF-539 CNS = test system: SF-539 CNS
SNB-19 CNS = test system: SNB-19 CNS
HL-60(TB) leukemia = test system: HL-60(TB) leukemia
MOLT-4 leukemia = test system: MOLT-4 leukemia
HT29 colon = test system: HT29 colon
CAKI-1 renal = test system: CAKI-1 renal
SF-295 CNS = test system: SF-295 CNS
MDA-MB-231 breast = test system: MDA-MB-231 breast
HS 578T breast = test system: HS 578T breast
SNB-75 CNS = test system: SNB-75 CNS
RPMI-8226 leukemia = test system: RPMI-8226 leukemia
NCI-H522 lung = test system: NCI-H522 lung
PC-3 prostate = test system: PC-3 prostate
MDA-MB-435 = test system: MDA-MB-435
IGROV1 ovarian = test system: IGROV1 ovarian
K-562 leukemia = test system: K-562 leukemia
KM12 colon = test system: KM12 colon
DU-145 prostate = test system: DU-145 prostate
NCI-H460 lung = test system: NCI-H460 lung
SK-OV-3 ovarian = test system: SK-OV-3 ovarian
OVCAR-8 ovarian = test system: OVCAR-8 ovarian
SF-268 CNS = test system: SF-268 CNS
SK-MEL-28 melanoma = test system: SK-MEL-28 melanoma
HCT-15 colon = test system: HCT-15 colon
T-47D breast = test system: T-47D breast
U251 CNS = test system: U251 CNS
A498 renal = test system: A498 renal
HCT-116 colon = test system: HCT-116 colon
OVCAR-5 ovarian = test system: OVCAR-5 ovarian
HOP-92 NSCLC = test system: HOP-92 NSCLC
MALME-3M melanoma = test system: MALME-3M melanoma
HCC-2998 colon = test system: HCC-2998 colon
UO-31 renal = test system: UO-31 renal

CCOP(=O)(/C=C/n1ccc(N)nc1=O)OCC
TGI (MCF7 breast): > 100 µM
TGI (ACHN renal): > 100 µM
TGI (SW-620 colon): > 100 µM
TGI (TK-10 renal): > 100 µM
TGI (UACC-62 melanoma): > 100 µM
TGI (SK-MEL-2 melanoma): > 100 µM
TGI (LOX IMVI melanoma): > 100 µM
TGI (A549 NSCLC): > 100 µM
TGI (OVCAR-3 ovarian): > 100 µM
TGI (SK-MEL-5 melanoma): > 100 µM
TGI (NCI-H23 lung): > 100 µM
TGI (UACC-257 melanoma): > 100 µM
TGI (NCI-H226 lung): > 100 µM
TGI (786-0 renal): > 100 µM
TGI (SN12C renal): > 100 µM
TGI (EKVX NSCLC): > 100 µM
TGI (M14 melanoma): > 100 µM
TGI (OVCAR-4 ovarian): > 100 µM
TGI (MDA-N): > 100 µM
TGI (NCI/ADR-RES ovarian): > 100 µM
TGI (BT-549 breast): > 100 µM
TGI (HOP-62 NSCLC): > 100 µM
TGI (CCRF-CEM leukemia): > 100 µM
TGI (COLO 205 colon): > 100 µM
TGI (RXF 393 renal): > 100 µM
TGI (SF-539 CNS): > 100 µM
TGI (SNB-19 CNS): > 100 µM
TGI (HL-60(TB) leukemia): > 100 µM
TGI (MOLT-4 leukemia): > 100 µM
TGI (HT29 colon): > 100 µM
TGI (CAKI-1 renal): > 100 µM
TGI (SF-295 CNS): > 100 µM
TGI (MDA-MB-231 breast): > 100 µM
TGI (HS 578T breast): > 100 µM
TGI (SNB-75 CNS): > 100 µM
TGI (RPMI-8226 leukemia): > 100 µM
TGI (NCI-H522 lung): > 100 µM
TGI (PC-3 prostate): > 100 µM
TGI (MDA-MB-435): > 100 µM
TGI (IGROV1 ovarian): > 100 µM
TGI (K-562 leukemia): > 100 µM
TGI (KM12 colon): > 100 µM
TGI (DU-145 prostate): > 100 µM
TGI (NCI-H460 lung): > 100 µM
TGI (SK-OV-3 ovarian): > 100 µM
TGI (OVCAR-8 ovarian): > 100 µM
TGI (SF-268 CNS): > 100 µM
TGI (SK-MEL-28 melanoma): > 100 µM
TGI (HCT-15 colon): > 100 µM
TGI (T-47D breast): > 100 µM
TGI (U251 CNS): > 100 µM
TGI (A498 renal): > 100 µM
TGI (HCT-116 colon): > 100 µM
TGI (OVCAR-5 ovarian): > 100 µM

c1ccc([Si](OCCN2CC2)(c2ccccc2)c2ccccc2)cc1
TGI (MCF7 breast): 31.8 µM
TGI (ACHN renal): 27.9 µM
TGI (SW-620 colon): 27.8 µM
TGI (TK-10 renal): 29.1 µM
TGI (UACC-62 melanoma): 27.2 µM
TGI (SK-MEL-2 melanoma): 18.4 µM
TGI (LOX IMVI melanoma): 27.6 µM
TGI (A549 NSCLC): 24.1 µM
TGI (OVCAR-3 ovarian): 31.3 µM
TGI (SK-MEL-5 melanoma): 29.2 µM
TGI (NCI-H23 lung): 29 µM
TGI (UACC-257 melanoma): 33.2 µM
TGI (NCI-H226 lung): 29.8 µM
TGI (786-0 renal): 27.2 µM
TGI (SN12C renal): 27.3 µM
TGI (EKVX NSCLC): 25.4 µM
TGI (M14 melanoma): 29.3 µM
TGI (OVCAR-4 ovarian): 22.7 µM
TGI (MDA-N): 28.1 µM
TGI (NCI/ADR-RES ovarian): 28.1 µM
TGI (BT-549 breast): 31.5 µM
TGI (HOP-62 NSCLC): 30 µM
TGI (CCRF-CEM leukemia): 49.5 µM
TGI (COLO 205 colon): 24.7 µM
TGI (RXF 393 renal): 19.2 µM
TGI (SF-539 CNS): 26.9 µM
TGI (SNB-19 CNS): 16 µM
TGI (HL-60(TB) leukemia): 50.8 µM
TGI (MOLT-4 leukemia): 36.3 µM
TGI (HOP-92 NSCLC): 18.4 µM
TGI (HT29 colon): 27 µM
TGI (CAKI-1 renal): 44.8 µM
TGI (SF-295 CNS): 27.4 µM
TGI (MDA-MB-231 breast): 28 µM
TGI (HS 578T breast): 24.9 µM
TGI (RPMI-8226 leukemia): 36.9 µM
TGI (MALME-3M melanoma): 31.3 µM
TGI (HCC-2998 colon): 26.4 µM
TGI (NCI-H522 lung): 25.5 µM
TGI (PC-3 prostate): 26.3 µM
TGI (MDA-MB-435): 26.7 µM
TGI (IGROV1 ovarian): 25.5 µM
TGI (K-562 leukemia): 26.8 µM
TGI (KM12 colon): 35.2 µM
TGI (DU-145 prostate): 27.5 µM
TGI (NCI-H460 lung): 25 µM
TGI (SK-OV-3 ovarian): 27.5 µM
TGI (OVCAR-8 ovarian): 33.1 µM
TGI (SF-268 CNS): 23 µM
TGI (UO-31 renal): 28.4 µM
TGI (HCT-15 colon): 21.9 µM
TGI (T-47D breast): 39.9 µM
TGI (U251 CNS): 27 µM
TGI (HCT-116 colon): 27.7 µM
TGI (OVCAR-5 ovarian): 27.7 µM

C=C1C(NC)CCC23CC24CCC2(C)C(C(C)=O)C(O)CC2(C)C4CCC13 (stereo not given)
TGI (MCF7 breast): > 100 µM
TGI (ACHN renal): > 100 µM
TGI (SW-620 colon): > 100 µM
TGI (TK-10 renal): > 100 µM
TGI (UACC-62 melanoma): > 100 µM
TGI (SK-MEL-2 melanoma): > 100 µM
TGI (LOX IMVI melanoma): > 100 µM
TGI (A549 NSCLC): > 100 µM
TGI (OVCAR-3 ovarian): > 100 µM
TGI (SK-MEL-5 melanoma): > 100 µM
TGI (NCI-H23 lung): > 100 µM
TGI (UACC-257 melanoma): > 100 µM
TGI (NCI-H226 lung): > 100 µM
TGI (786-0 renal): > 100 µM
TGI (SN12C renal): > 100 µM
TGI (EKVX NSCLC): > 100 µM
TGI (M14 melanoma): > 100 µM
TGI (OVCAR-4 ovarian): > 100 µM
TGI (MDA-N): > 100 µM
TGI (NCI/ADR-RES ovarian): > 100 µM
TGI (BT-549 breast): > 100 µM
TGI (CCRF-CEM leukemia): > 100 µM
TGI (COLO 205 colon): > 100 µM
TGI (SF-539 CNS): > 100 µM
TGI (SNB-19 CNS): > 100 µM
TGI (HL-60(TB) leukemia): > 100 µM
TGI (MOLT-4 leukemia): > 100 µM
TGI (HOP-92 NSCLC): > 100 µM
TGI (HT29 colon): > 100 µM
TGI (CAKI-1 renal): > 100 µM
TGI (SF-295 CNS): 82.5 µM
TGI (MDA-MB-231 breast): > 100 µM
TGI (HS 578T breast): > 100 µM
TGI (SNB-75 CNS): > 100 µM
TGI (RPMI-8226 leukemia): > 100 µM
TGI (MALME-3M melanoma): > 100 µM
TGI (HCC-2998 colon): > 100 µM
TGI (NCI-H522 lung): > 100 µM
TGI (PC-3 prostate): > 100 µM
TGI (MDA-MB-435): > 100 µM
TGI (IGROV1 ovarian): > 100 µM
TGI (K-562 leukemia): > 100 µM
TGI (KM12 colon): > 100 µM
TGI (DU-145 prostate): > 100 µM
TGI (NCI-H460 lung): > 100 µM
TGI (SK-OV-3 ovarian): > 100 µM
TGI (OVCAR-8 ovarian): > 100 µM
TGI (SF-268 CNS): > 100 µM
TGI (SK-MEL-28 melanoma): > 100 µM
TGI (UO-31 renal): > 100 µM
TGI (HCT-15 colon): > 100 µM
TGI (T-47D breast): > 100 µM
TGI (U251 CNS): > 100 µM
TGI (A498 renal): > 100 µM
TGI (HCT-116 colon): > 100 µM
TGI (OVCAR-5 ovarian): > 100 µM
